Experimental data taken from patent US20250120952A1, “17-Beta-Hydroxysteroid Dehydrogenase Type 13 Inhibitors And Methods Of Use Thereof” (ENANTA PHARMACEUTICALS, INC., priority 2023, published 2025).

Columns and labels:
HSD17B13 = target: T1, HSD17B13 (Homo sapiens, UniProt Q7Z5P4); test: HSD17B13 enzymatic activity in H441 cells (estradiol conversion to estrone, rapid fire mass spectrometry); assay type: cell-based; details: H441 (high HSD17B13), inhibitor 0.3 uM, 1 uM, 3 uM, 24 hours; effect only in H441, not in A549 (low HSD17B13) (FIG. 10)
T1 construct: Human lung cancer cell lines with high (H441) or low (A549) expression of HSD17B13, as confirmed by western blot; host or cells: H441 human lung cancer cell line
T1 sequence (Q7Z5P4 20-300): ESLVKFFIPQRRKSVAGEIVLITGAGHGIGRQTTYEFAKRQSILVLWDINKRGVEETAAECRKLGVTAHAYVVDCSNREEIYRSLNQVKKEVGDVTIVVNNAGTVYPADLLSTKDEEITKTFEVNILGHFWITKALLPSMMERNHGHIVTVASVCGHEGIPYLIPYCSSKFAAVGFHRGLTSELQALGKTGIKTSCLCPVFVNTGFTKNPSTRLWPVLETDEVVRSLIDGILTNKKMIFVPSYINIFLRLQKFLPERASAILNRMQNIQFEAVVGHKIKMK
Method: (§1) Human lung cancer cell lines with high (H441) or low (A549) expression of HSD17B13, as confirmed by western blot, were acquired from ATCC and maintained according to manufacturer's instructions. Cells were seeded at a confluency of 2e5 cells/well (A549) or 4e5 cells/well (H441) in a 6-well format. Once cells were 70% confluent, media was removed and replenished with starvation media for 24 hours. Afterward starvation media was removed and replenished with treatment media for 24 hours. Compound 348 and Compound 812 were used as HSD17B13 inhibitors. For gene expression analysis, treatment media consisted of +/−TGFB1 (10 ng/mL) and +/−HSD17B13 inhibitor (3 uM). For HSD17B13 enzymatic activity, treatment media consisted of +/−d2-Estradiol (Cayman Chemicals) and +/−HSD17B13 inhibitor (0.3 uM, 1 uM, 3 uM); supernatants were collected to measure estradiol conversion to estrone by rapid fire mass spectrometry.

H441 cells = test: Collagen / COL1A1 mRNA in H441 cells; assay type: cell-based, human; details: H441 (high HSD17B13), +/-TGFB1 10 ng/mL, inhibitor 3 uM, 24 hours; effect only in H441, not in A549 (low HSD17B13) (FIG. 11)
Method: as §1

enzymatic activity (d2-estradiol conversion to estrone) (HSD17B13): decreased
Structure (SMILES): COc1cc(C(=O)O)ccc1NS(=O)(=O)c1csc(-c2ccc(C3CCC(C(F)(F)F)CC3)cc2)n1 (centres unmarked) [Compound 348]
COL1A1 (Collagen) (H441 cells): decreased
